These results are taken from patent US11419834B2, “Methods for treating diseases or infections caused by or associated with H. pylori using a halogenated salicylanilide” (Rhode Island Hospital, priority 2019, dated 2022).

In brackets after ≈: the same amount, converted by molar mass.

Assay [1] has as its system H. pylori reference strain 60190 (ATCC 49503). Nature of the assay: Broth microdilution assay, MIC. It is filed as cell-based. To be noted: Helicobacter pylori, ATCC49503, 72 h; H. pylori strain 60190; Müller-Hinton broth + 10% FBS, 3 days.
In the next assay the test system is H. pylori strain 60190. Nature of the assay: Minimum bactericidal concentration (plating from MIC assay). It is filed as cell-based, Helicobacter pylori. To be noted: Helicobacter pylori; H. pylori strain 60190; read-out: MBC.
For assay [2], the system named is H. pylori bacteria (strain 60190). Description: Time to kill assay. The class given is cell-based, Helicobacter pylori. Conditions: 4×MIC (1 μg/mL); 10^9 cells/mL. On the procedure: Niclosamide was therefore tested time to kill assays were used to confirm the killing properties of niclosamide against H. pylori. Agar grown H. pylori bacteria (strain 60190) were suspended in fresh Mueller Hinton Broth (MHB) with 10% Fetal bovine serum (FBS) to a density of 10^9 cells/mL and placed into 10 mL tubes (BD Biosciences). […] Aliquots were periodically drawn from the tubes, serially diluted and plated onto Brucella agar (BD Biosciences) supplemented with 10% FBS. CFUs were counted after a 3-day incubation and assays were carried out in duplicate. […] Of note, clarithromycin, a commonly prescribed antibiotic for H. pylori treatment, is also bacteriostatic (De Francesco et al. World journal of gastrointestinal pathophysiology 2, 35 (2011)).

Assay [3] has as its system H. pylori (strain 60190) adhered to AGS cells. Nature of the assay: Adhesion of H. pylori to AGS cells. To be noted: niclosamide 2×MIC, 20 hours, MOI=100. It is filed as cell-based, Helicobacter pylori. On the procedure: The AGS (Gastric adenocarcinoma cell lines) cell line was used to examine inhibition of adhesion and invasion of H. pylori (strain 60190) by niclosamide, as described by Schmitt et al. (Front Cell Infect Microbiol. 2013; 3:93). The AGS cells were grown in Dulbecco's Modified Eagle Medium (DMEM, ex. Gibco), supplemented with 10% fetal bovine serum (Gibco) and 1% penicillin/streptomycin (Gibco) and maintained at 37° C. in 5% C02. Then, 5×10^5 cells in antibiotic and serum-free DMEM were seeded in 6-well plates 24 hours prior to infection. H. pylori bacteria at a multiplicity of infection (MOI)=100 were added and allowed to adhere to the surface of the AGS cells. Planktonic bacteria were removed after 2 hours and DMEM with niclosamide (2×MIC) was then added to the wells containing the AGS. The mammalian cells were lysed by 0.1% saponin after 20 hours of incubation and the adhered bacteria were then serially diluted, plated in Brucella agar supplemented with 10% FBS, and incubated as described above. A control arm of DMSO and a comparator using amoxicillin at a concentration of 0.1 μg/mL (10×MIC) was also assessed. […]

The subject of assay [4] is AGS cells co-cultured with H. pylori (strain 60190). Description: Light microscopy imaging for vacuolation. It is filed as cell-based. Conditions: sub-MIC (0.2 μg/mL), 24 h, MOI of 100. As for the experimental part: H. Pylon bacteria secrete VacA toxin via a type V secretion system (Galmiche et al. Gut Microbes. 2010 November-December; 1(6):392-5. 44). This toxin binds to host gastric epithelial cells and its internalization leads to vacuolation, characterized by the accumulation of large vacuoles in gastric epithelial cells during the infection process. AGS cells were harvested and seeded into a 6 well plate at a concentration of 5×10^5 cells, 24 h before experimentation. H. Pylon bacteria (strain 60190) were harvested and washed with sterile PBS and co-cultured with AGS at a MOI of 100. After incubation for 24 h, the cells were washed, magnified under a microscope, and examined for vacuolation. […] After 3 days, the bacteria were washed and treated with TRIZOL (Invitrogen, Carlsbad, Calif., USA), and the RNA concentration was determined using a NanoVue Plus spectrophotometer (GE Healthcare, Fairfield, Conn., USA). PCR amplifications were performed, and the products were analysed by gel electrophoresis (1.0% agarose) containing SYBR® Safe (Invitrogen). Gel images were captured and analysed using the Quantity One System.

Assay [5] deals with H. pylori cells (strain 60190). Description: Motility assay in soft agar. It is filed as cell-based, Helicobacter pylori. To be noted: for H. pylori motility (swarming) versus concentration: niclosamide from 0.10 to 0.20 μg/mL (75-200 ng/mL in soft agar).
The next assay relates to H. pylori bacteria. Nature of the assay: Scanning electron microscopy of morphology. It is filed as cell-based, Helicobacter pylori. Conditions: 2 hours.

Take `O=C(Nc1ccc([N+](=O)[O-])cc1Cl)c1cc(Cl)ccc1O` [Niclosamide, niclosamide]: the MIC in assay [1] was 0.25 µg/mL. For the same compound, the MBC with H. pylori strain 60190 amounted to 0.5 µg/mL (≈ 1.53 µM). In addition, the “killing kinetics (bacteriostatic or bactericidal)” value in assay [2] is recorded as “bacteriostatic”. For the same compound, the “reduction of CFU/mL counts of adhered bacteria” value in assay [3] turned out to be 3 log10. Further, in assay [4], the “effect on vacuolation of AGS cells” value is reported as “prevented vacuolation”. The “H. pylori motility (swarming) versus concentration” value is listed as “impeded H. Pylon swarming movement in a dose-dependent manner” in assay [5] and “decreased in a dose-dependent manner” in assay [5] (listed as niclosamide). Besides, in assay [5] (sub-MIC (0.2 μg/mL)), the H. pylori motility entry is reported as “abated”. Also, the “morphology (helical shape) by SEM” value in the assay on H. pylori bacteria (1× MIC) was “shortened”. For the same compound, the “morphology by SEM” value with H. pylori bacteria (4× and 8× MIC) is on record as “Cocco-bacillary”. Besides, in the assay with H. pylori bacteria (niclosamide treatment), the “effect on bacterial flagella by SEM” value is “flagellar deformation”.
